Assay results: ChEMBL document CHEMBL1201862, “PubChem BioAssay data set” (2004)
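Growth conditions: 96-well plates. Treatment: test compound, 48 hours, 5 concentrations. Analysis: linear interpolation between bracketing concentrations; unreached endpoints set to highest concentration. At the GI50, growth is halved.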 Active and inactive are the calls of the source. Rule as the data show it: active = GI50 up to about 1.1 µM and inactive = higher.

Tests used:
Assay in all cases: inhibition of tumour cell growth, NCI panel, 48 h
786-0 = tested on: 786-0
A549 = tested on: A549
CAKI-1 = tested on: CAKI-1
CCRF-CEM = tested on: CCRF-CEM
COLO 205 = tested on: COLO 205
DU-145 = tested on: DU-145
EKVX = tested on: EKVX
HCC 2998 = tested on: HCC 2998
HCT-15 = tested on: HCT-15
HL-60 = tested on: HL-60
HOP-62 = tested on: HOP-62
HT-29 = tested on: HT-29
IGROV-1 = tested on: IGROV-1
K562 = tested on: K562
KM12 = tested on: KM12
LOX IMVI = tested on: LOX IMVI
M14 = tested on: M14
MCF7 = tested on: MCF7
MDA-MB-231 = tested on: MDA-MB-231
MDA-N = tested on: MDA-N
MOLT-4 = tested on: MOLT-4
Malme-3M = tested on: Malme-3M
NCI-H23 = tested on: NCI-H23
OVCAR-8 = tested on: OVCAR-8
PC-3 = tested on: PC-3
RPMI-8226 = tested on: RPMI-8226
RXF 393 = tested on: RXF 393
SF-268 = tested on: SF-268
SF-295 = tested on: SF-295
SK-MEL-28 = tested on: SK-MEL-28
SK-MEL-5 = tested on: SK-MEL-5
SK-OV-3 = tested on: SK-OV-3
SN12C = tested on: SN12C
SNB-75 = tested on: SNB-75
SR = tested on: SR
SW-620 = tested on: SW-620
T47D = tested on: T47D
TK-10 = tested on: TK-10
UACC-257 = tested on: UACC-257
UACC-62 = tested on: UACC-62
ACHN = tested on: ACHN
HCT-116 = tested on: HCT-116
MDA-MB-435 = tested on: MDA-MB-435
NCI-H226 = tested on: NCI-H226
NCI-H460 = tested on: NCI-H460
NCI-H522 = tested on: NCI-H522
NCI/ADR-RES = tested on: NCI/ADR-RES
OVCAR-3 = tested on: OVCAR-3
OVCAR-4 = tested on: OVCAR-4
OVCAR-5 = tested on: OVCAR-5
SF-539 = tested on: SF-539
SK-MEL-2 = tested on: SK-MEL-2
SNB-19 = tested on: SNB-19
U-251 = tested on: U-251
UO-31 = tested on: UO-31

Measured: GI50

CN1CCN(c2cc3nsnc3c3nsnc23)CC1
> 10 µM: HCT-15
inactive: 786-0 > 10 µM | A549 > 10 µM | CAKI-1 > 10 µM | CCRF-CEM > 10 µM | COLO 205 > 10 µM | DU-145 > 10 µM | EKVX > 10 µM | HCC 2998 > 10 µM | HL-60 > 10 µM | HOP-62 > 10 µM | HT-29 > 10 µM | IGROV-1 > 10 µM | K562 > 10 µM | KM12 > 10 µM | LOX IMVI > 10 µM | M14 > 10 µM | MCF7 > 10 µM | MDA-MB-231 > 10 µM | MDA-N > 10 µM | MOLT-4 > 10 µM | Malme-3M > 10 µM | NCI-H23 > 10 µM | OVCAR-8 > 10 µM | PC-3 > 10 µM | RPMI-8226 > 10 µM | RXF 393 > 10 µM | SF-268 > 10 µM | SF-295 > 10 µM | SK-MEL-28 > 10 µM | SK-MEL-5 > 10 µM | SK-OV-3 > 10 µM | SN12C > 10 µM | SNB-75 > 10 µM | SR > 10 µM | SW-620 > 10 µM | T47D > 10 µM | TK-10 > 10 µM | UACC-257 > 10 µM | UACC-62 > 10 µM

COc1ccc2cc(C(=O)Nc3ccc(O)c(C(=O)O)c3)ccc2c1OC
inactive: 786-0 > 100 µM | ACHN > 100 µM | CAKI-1 > 100 µM | CCRF-CEM > 100 µM | DU-145 > 100 µM | EKVX > 100 µM | HCC 2998 > 100 µM | HCT-116 > 100 µM | HL-60 > 100 µM | HOP-62 > 100 µM | HT-29 > 100 µM | IGROV-1 > 100 µM | K562 > 100 µM | KM12 > 100 µM | LOX IMVI > 100 µM | M14 > 100 µM | MCF7 > 100 µM | MDA-MB-231 > 100 µM | MDA-MB-435 > 100 µM | MDA-N > 100 µM | MOLT-4 > 100 µM | Malme-3M > 100 µM | NCI-H226 > 100 µM | NCI-H23 > 100 µM | NCI-H460 > 100 µM | NCI-H522 49.4 µM | NCI/ADR-RES > 100 µM | OVCAR-3 > 100 µM | OVCAR-4 72.6 µM | OVCAR-5 > 100 µM | OVCAR-8 > 100 µM | PC-3 > 100 µM | RPMI-8226 > 100 µM | SF-268 > 100 µM | SF-539 > 100 µM | SK-MEL-28 > 100 µM | SK-MEL-2 > 100 µM | SK-MEL-5 > 100 µM | SK-OV-3 > 100 µM | SN12C > 100 µM | SNB-19 > 100 µM | SNB-75 > 100 µM | SR > 100 µM | SW-620 > 100 µM | T47D > 100 µM | TK-10 > 100 µM | U-251 > 100 µM | UACC-257 > 100 µM | UACC-62 > 100 µM | UO-31 > 100 µM
> 100 µM: HCT-15
